For eight molecules, IC50 and Ki results are on record in BindingDB's records for doi:10.1016/j.bioorg.2017.03.014 (University of Karachi, 2017).

The target of test [1] is T1, Carbonic anhydrase 2 (Bos taurus, UniProt P00921). Kind of test: Carbonic Anhydrase II Inhibition Assay. The settings on record: pH 7.4; 25 °C. How it is done: In this assay, 4-nitrophenyl acetate (4-NPA), a colorless compound, was hydrolyzed to 4-nitrophenol and […]. The reaction was followed by measuring the formation of 4-nitrophenol, a yellow colored compound. The reaction was performed at 25 °C inbuffer containing HEPES and Tris-HCl at a total concentration of 20 mM and pH of 7.4 for each sample. The reaction mixture contained 140 μL of the HEPES-tris solution, 20 μL of freshly prepared aqueous solution of purified bovine erythrocyte CA-II (0.1 mg/mL of deionized water for 96-well), 20 μL of test compound in DMSO (10% final concentration), 20 μL of substrate 4-NPA at a concentration of 0.7 mM diluted in ethanol. The reaction was initiated by addition of 4-NPA after 15 min incubation of test compound, and each compound was tested 3-times at different concentrations. In this assay, the reaction was performed using 96-well plates.
T1 sequence (P00921 whole entry): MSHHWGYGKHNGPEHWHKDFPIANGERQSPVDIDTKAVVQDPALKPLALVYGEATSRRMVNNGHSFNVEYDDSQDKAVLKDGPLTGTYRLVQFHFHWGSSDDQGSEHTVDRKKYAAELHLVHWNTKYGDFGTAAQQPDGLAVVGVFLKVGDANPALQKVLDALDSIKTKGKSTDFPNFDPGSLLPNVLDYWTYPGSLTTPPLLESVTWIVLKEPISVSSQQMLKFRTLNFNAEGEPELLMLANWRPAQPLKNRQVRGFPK

The target of test [2] is T1, Carbonic anhydrase 2. Kind of test: Carbonic Anhydrase II Kinetic Assay. The settings on record: pH 7.4. How it is done:
Kinetic studies were performed by using different concentration of inhibitors over different concentrations of substrate (4-NPA) such as 0.175, 0.35, 0.70 and 1.40 mM. The enzyme 0.2 mg/mL concentration for each well was used after dissolving in de-ionized water. HEPES-tris ammonia was used as buffer at pH of 7.4. The change in absorbance was measured by keeping the 96-well flat bottom plate in ELISA reader (Spectra max 384, Molecular Devices USA) after addition of substrate for a period of 30 min at 25 °C with 1 min interval.

By IC50 is commonly meant the concentration at which inhibition is half-maximal. High values mean weaker potency, low ones greater potency. As usually defined, the Ki is the equilibrium dissociation constant of an inhibitor or competing ligand from its target.

Turning to `O=C(N/N=C/c1ccc(Cl)cc1Cl)N/N=C/c1ccc(Cl)cc1Cl` [N'',N'''-Bis[(E)-(2,4-dichlorophenyl)methylidene]carbonic dihydrazide (8)], the IC50 in test [1] turned out to be 2670 nM.

In turn, `O=C(N/N=C/c1c(Cl)cccc1Cl)N/N=C/c1c(Cl)cccc1Cl` [N'',N'''-Bis[(E)-(2,6-dichlorophenyl)methylidene]carbonic dihydrazide (9)] had an IC50 in test [1] of 1460 nM. The Ki in test [2] worked out at 1780 nM.

With `O=C(N/N=C/c1ccccc1Br)N/N=C/c1ccccc1Br` [N'',N'''-Bis[(E)-(2-bromophenyl)methylidene]carbonic dihydrazide (5)], the IC50 in test [1] was determined as 3960 nM.

As for `O=C(N/N=C/c1cc([N+](=O)[O-])ccc1Cl)N/N=C/c1cc([N+](=O)[O-])ccc1Cl` [N'',N'''-Bis[(E)-(2-chloro-5-nitrophenyl)methylidene]carbonic dihydrazide (3)], the IC50 in test [1] is 1370 nM. The same molecule came in with a Ki in test [2] of 3580 nM.

On to `O=C(N/N=C/c1ccccc1Cl)N/N=C/c1ccccc1Cl` [N'',N'''-Bis[(E)-(2-chlorophenyl)methylidene]carbonic dihydrazide (7)], for which 2330 nM corresponded to half-maximal inhibition in test [1] (IC50). In addition, in test [2], the Ki was 4120 nM.

In test [1], `O=C(N/N=C/c1ccccc1[N+](=O)[O-])N/N=C/c1ccccc1[N+](=O)[O-]` [N'',N'''-Bis[(E)-(2-nitrophenyl)methylidene]carbonic dihydrazide (2)] gave an IC50 of 1850 nM. In test [2], this molecule had a Ki of 1810 nM.

Turning to `O=C(N/N=C/c1ccc(Br)cc1)N/N=C/c1ccc(Br)cc1` [N'',N'''-Bis[(E)-(4-bromophenyl)methylidene]carbonic dihydrazide (4)], it took 2320 nM to reach half-maximal inhibition in test [1] (IC50). This molecule displayed a Ki in test [2] of 2520 nM.

Turning to `O=C(N/N=C/c1ccc([N+](=O)[O-])cc1)N/N=C/c1ccc([N+](=O)[O-])cc1` [N'',N'''-Bis[(E)-(4-nitrophenyl)methylidene]carbonic dihydrazide (1)], in test [1], it took 1330 nM to reach half-maximal inhibition (IC50). For the same molecule, the inhibitory constant (Ki) in test [2] was 2350 nM.
